Experimental findings from BindingDB's records for doi:10.1016/j.bmcl.2007.10.036 (Cardiff University, 2007) are described below.

The target in the assay is MAP kinase-activated protein kinase 2 (Homo sapiens, UniProt P49137). Nature of the assay: Inhibition of MK2 in human TERT immortalised HCA2 cells assessed as inhibition of anisomycin-induced HSP27 phosphorylation at 2.5 uM by ELISA. (In general: ELISA stands for enzyme-linked immunosorbent assay.)
Chain of MAP kinase-activated protein kinase 2 (P49137 whole entry): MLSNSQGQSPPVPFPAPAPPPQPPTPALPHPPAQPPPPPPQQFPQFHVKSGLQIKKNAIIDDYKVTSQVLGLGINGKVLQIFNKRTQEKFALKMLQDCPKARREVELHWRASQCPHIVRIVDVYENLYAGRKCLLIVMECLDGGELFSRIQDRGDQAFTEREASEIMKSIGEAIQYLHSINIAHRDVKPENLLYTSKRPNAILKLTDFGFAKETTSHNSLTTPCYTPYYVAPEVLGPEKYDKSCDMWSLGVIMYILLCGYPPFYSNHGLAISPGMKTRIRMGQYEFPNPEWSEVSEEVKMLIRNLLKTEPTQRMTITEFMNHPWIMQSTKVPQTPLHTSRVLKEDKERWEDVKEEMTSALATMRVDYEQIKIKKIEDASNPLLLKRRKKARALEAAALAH

For the molecule `O=C(CCCc1ccc(-c2ccccc2F)cc1)Nc1ccc(O)cc1`, the inhibitory constant (Ki) – broadly, the dissociation constant of the complex between target and ligand, obtained from inhibition or displacement – was 0.33 µM.
